Consider 37 compounds from patent publication US8933099B2, “Monocyclic pyridine derivative” (Eisai R&D Management Co., Ltd., priority 2013, dated 2015).

Read-outs that look alike come from different tables or passages of the source.

In test [1] the test system is normal human umbilical vein endothelial cells (HUVEC). Description: HUVEC growth inhibition assay (VEGF-induced). Format: cell-based. To be noted: Homo sapiens, HUVEC, 72 h, read-out: HUVEC (IC50 (nM)), growth in the presence of VEGF 10 ng/mL, 3 days. As to the method: The absorbance value was measured with ENVISION™ (PerkinElmer Co., Ltd.) at 450 nm. The absorbance values of the wells without adding the test substance but with VEGF addition was defined as 100% and the absorbance values of the wells with neither the test substance nor VEGF addition was defined as 0%.

The subject of test [2] is human stomach cancer cell line SNU-16 (FGFR2 gene amplification). Nature of the test: SNU-16 growth inhibition assay. In kind it is cell-based. To be noted: Homo sapiens, SNU-16, 72 h. As to the method:
In this assay, the growth inhibitory activity of a test substance in a human stomach cancer cell line harboring FGFR2 gene amplification is measured.
Then, 10 μL of Cell Counting Kit-8 (Dojindo Laboratories, CK04) was added to each well, and the resultant was incubated for 1 to 2 hours in a 5% CO2 incubator (37° C.) to cause a color reaction. The absorbance value was measured with ENVISION™ (PerkinElmer Co., Ltd.) at 450 nm.

The mark [3] stands for this setting: read-out: SNU-16 (IC50 (nM)), cell growth, 3 days, Cell Counting Kit-8.

`CNC(=O)n1ccc2cc(Oc3ccnc(NC(=O)c4ccc(C5CCN(CCCF)CC5)cc4)c3)c(OC)cc21` [Example 5, 5-((2-(4-(1-(3-Fluoropropyl)piperidin-4-yl)benzamide)pyridin-4-yl)oxy)-6-methoxy-N-methyl-1H-indole-1-carboxamide]: the IC50 in test [1] was determined as 387 nM; in test [2] (setting [3]), 13.4 nM.
The like results for `CNC(=O)n1ccc2cc(Oc3ccnc(NC(=O)c4ccc(C5CCNCC5F)cc4)c3)c(OC)cc21` (stereo not drawn) [Example 6, 5-((2-(4-(3-Fluoropiperidin-4-yl)benzamide)pyridin-4-yl)oxy)-6-methoxy-N-methyl-1H-indole-1-carboxamide] were, in that order, 180 nM and 9.1 nM.
As to `CNC(=O)n1ccc2cc(Oc3ccnc(NC(=O)c4ccc(C5(F)CCNCC5)cc4)c3)c(OC)cc21` [Example 7, 5-((2-(4-(4-Fluoropiperidin-4-yl)benzamide)pyridin-4-yl)oxy)-6-methoxy-N-methyl-1H-indole-1-carboxamide], the IC50 in test [1] was found to be 205 nM; in test [2] (setting [3]), 9.6 nM.
As to `CNC(=O)n1ccc2cc(Oc3ccnc(NC(=O)c4ccc(N5CCC(N6CCCC6)CC5)cc4)c3)c(OC)cc21` [Example 8, 6-Methoxy-N-methyl-5-((2-(4-(4-(pyrrolidin-1-yl)piperidin-1-yl)benzamide)pyridin-4-yl)oxy)-1H-indole-1-carboxamide], the values for the IC50 in test [1] and in test [2] (setting [3]) were 140 nM and 15.4 nM, respectively.
On to `CNC(=O)n1ccc2cc(Oc3ccnc(NC(=O)c4ccc(CN5C[C@H](OC)[C@@H](O)C5)cc4)c3)c(OC)cc21` [Example 10, 5-((2-(4-(((3S,4S)-3-Hydroxy-4-methoxypyrrolidin-1-yl)methyl)benzamide)pyridin-4-yl)oxy)-6-methoxy-N-methyl-1,4-indole-1-carboxamide], for which the IC50 in test [1] was determined as 350 nM; in test [2] (setting [3]) it was 28.7 nM.
Regarding `CCN1CCN(CCc2ccc(C(=O)Nc3cc(Oc4cc5ccn(C(=O)NC)c5cc4OC)ccn3)cc2)CC1` [Example 11, 5-((2-(4-(2-(4-Ethylpiperazin-1-yl)ethyl)benzamide)pyridin-4-yl)oxy)-6-methoxy-N-methyl-1H-indole-1-carboxamide], the IC50 in test [1] was 132 nM; in test [2] (setting [3]), 14.5 nM.
For `CNC(=O)n1ccc2cc(Oc3ccnc(NC(=O)c4ccc(OCCN5CCC(O)CC5)cc4)c3)c(OC)cc21` [Example 12, 5-((2-(4-(2-(4-Hydroxypiperidin-1-yl)ethoxy)benzamide)pyridin-4-yl)oxy)-6-methoxy-N-methyl-1H-indole-1-carboxamide], the IC50 in test [1] came out at 141 nM; in test [2] (setting [3]), 13 nM.
On to `CCN1CCC(n2cc(C(=O)Nc3cc(Oc4cc5ccn(C(=O)NC)c5cc4OC)ccn3)cn2)CC1` [Example 13, 5-((2-(1-(1-Ethylpiperidin-4-yl)-1H-pyrazole-4-carboxamide)pyridin-4-yl)oxy)-6-methoxy-N-methyl-1H-indole-1-carboxamide], for which the IC50 in test [1] worked out at 396 nM; in test [2] (setting [3]), 10.9 nM.
As for `CNC(=O)n1ccc2cc(Oc3ccnc(NC(=O)c4ccc(OC5CCN(CCO)CC5)cc4)c3)c(OC)cc21` [Example 14, 5-((2-(4-((1-(2-Hydroxyethyl)piperidin-4-yl)oxy)benzamide)pyridin-4-yl)oxy)-6-methoxy-N-methyl-1H-indole-1-carboxamide], the IC50 is 169 nM in test [1] and 9.5 nM in test [2] (setting [3]).
For `CCOc1cc2c(ccn2C(=O)NC)cc1Oc1ccnc(NC(=O)c2ccc(C3CCNCC3)cc2)c1` [Example 15, 6-Ethoxy-N-methyl-5-((2-(4-(piperidin-4-yl)benzamide)pyridin-4-yl)oxy)-1H-indole-1-carboxamide], the IC50 in test [2] (read-out: SNU-16 (IC50 (nM))) was determined as 9.7 nM.
With `CNC(=O)n1ccc2cc(Oc3ccnc(NC(=O)c4ccc(C5CCNCC5)cc4)c3)c(OC(C)C)cc21` [Example 17, 6-Isopropoxy-N-methyl-5-((2-(4-(piperidin-4-yl)benzamide)pyridin-4-yl)oxy)-1H-indole-1-carboxamide], the IC50 in test [2] (read-out: SNU-16 (IC50 (nM))) is 17.7 nM.
Consider `CNC(=O)n1ccc2cc(Oc3ccnc(NC(=O)c4ccc(C5CCN(C[C@@H](C)O)CC5)cc4)c3)c(OC(C)C)cc21` [Example 18, (R)-5-((2-(4-(1-(2-Hydroxypropyl)piperidin-4-yl)benzamide)pyridin-4-yl)oxy)-6-isopropoxy-N-methyl-1H-indole-1-carboxamide], for which the values for the IC50 in test [1] and in test [2] (setting [3]) were 180 nM and 13.9 nM, respectively.
Turning to `CNC(=O)n1ccc2cc(Oc3ccnc(NC(=O)c4ccc(CN5CCC(O)CC5)cc4)c3)c(OC(F)F)cc21` [Example 19, 6-(Difluoromethoxy)-5-((2-(4-((4-hydroxypiperidin-1-yl)methyl)benzamide)pyridin-4-yl)oxy)-N-methyl-1H-indole-1-carboxamide], the IC50 in test [1] was 151 nM; in test [2] (setting [3]), 14.1 nM.
Regarding `CNC(=O)n1ccc2cc(Oc3ccnc(NC(=O)c4ccc(C5CCNCC5)cc4)c3)c(OCCOC)cc21` [Example 20, 6-(2-Methoxyethoxy)-N-methyl-5-((2-(4-(piperidin-4-yl)benzamide)pyridin-4-yl)oxy)-1H-indole-1-carboxamide], the IC50 in test [2] (read-out: SNU-16 (IC50 (nM))) came out at 7.5 nM.
Regarding `CCOCCOc1cc2c(ccn2C(=O)NC)cc1Oc1ccnc(NC(=O)c2ccc(C3CCNCC3)cc2)c1` [Example 24, 6-(2-Ethoxyethoxy)-N-methyl-5-((2-(4-(piperidin-4-yl)benzamide)pyridin-4-yl)oxy)-1H-indole-1-carboxamide], the IC50 in test [2] (read-out: SNU-16 (IC50 (nM))) is 6.2 nM.
As for `CCOCCOc1cc2c(ccn2C(=O)NC)cc1Oc1ccnc(NC(=O)c2ccc(CN3C[C@@H](C)N[C@@H](C)C3)cc2)c1` [Example 30, 5-((2-(4-(((3S,5R)-3,5-Dimethylpiperazin-1-yl)methyl)benzamide)pyridin-4-yl)oxy)-6-(2-ethoxyethoxy)-N-methyl-1H-indole-1-carboxamide], the IC50 in test [1] was found to be 566 nM.
In the case of `CCOc1cc2c(ccn2C(=O)NC)cc1Oc1ccnc(NC(=O)c2ccc(C3CCN(CC(C)(C)O)CC3)cc2)c1` [Example 58], the IC50 in test [2] (read-out: SNU-16 (IC50 (nM))) was found to be 10 nM.
With `CNC(=O)n1ccc2cc(Oc3ccnc(NC(=O)c4ccc(C5CCN(C)CC5)cc4)c3)c(OC(C)C)cc21` [Example 69], the IC50 in test [2] (read-out: SNU-16 (IC50 (nM))) was determined as 17.5 nM.
As for `CNC(=O)n1ccc2cc(Oc3ccnc(NC(=O)c4ccc(C5CN(CC(C)(C)O)C5)cc4)c3)c(OCCOC)cc21` [Example 79], in test [2] (read-out: SNU-16 (IC50 (nM))), the IC50 worked out at 4.6 nM.
Turning to `CNC(=O)n1ccc2cc(Oc3ccnc(NC(=O)c4ccc(CN5CCC[C@H]5CO)s4)c3)c(OCCOC)cc21` [Example 83], in test [1], the IC50 is 310 nM.
In the case of `CNC(=O)n1ccc2cc(Oc3ccnc(NC(=O)c4ccc(C5CN(C)C5)cc4)c3)c(OCCOC)cc21` [Example 87], the IC50 in test [2] (read-out: SNU-16 (IC50 (nM))) is 3.9 nM.
As for `CNC(=O)n1ccc2cc(Oc3ccnc(NC(=O)c4ccc(C5CN(C(C)C)C5)cc4)c3)c(OCCOC)cc21` [Example 88], the IC50 in test [2] (read-out: SNU-16 (IC50 (nM))) was determined as 6.9 nM.
With `CCOCCOc1cc2c(ccn2C(=O)NC)cc1Oc1ccnc(NC(=O)c2ccc(C3CN(CC(C)(C)O)C3)cc2)c1` [Example 95], the IC50 in test [2] (read-out: SNU-16 (IC50 (nM))) stood at 5.1 nM.
As to `CCOCCOc1cc2c(ccn2C(=O)NC)cc1Oc1ccnc(NC(=O)c2ccc(C3CN(C[C@@H](C)O)C3)cc2)c1` [Example 96], in test [2] (read-out: SNU-16 (IC50 (nM))), the IC50 worked out at 6.4 nM.
Take `CCOCCOc1cc2c(ccn2C(=O)NC)cc1Oc1ccnc(NC(=O)c2ccc(C3CN(C[C@H](C)O)C3)cc2)c1` [Example 97]: the IC50 in test [2] (read-out: SNU-16 (IC50 (nM))) is 3.6 nM.
For the compound `CCOCCOc1cc2c(ccn2C(=O)NC)cc1Oc1ccnc(NC(=O)c2ccc(CN3CC[C@@H](O)C3)cc2)c1` [Example 106], in test [1], the IC50 is 726 nM.
As to `CCOCCOc1cc2c(ccn2C(=O)NC)cc1Oc1ccnc(NC(=O)c2ccc(C3CCN(CC(C)(C)O)CC3)cc2)c1` [Example 109], in test [2] (read-out: SNU-16 (IC50 (nM))), the IC50 came out at 6.7 nM.
On to `CCOCCOc1cc2c(ccn2C(=O)NC)cc1Oc1ccnc(NC(=O)c2ccc(C3CCN(C(C)C)CC3)cc2)c1` [Example 110], for which the IC50 in test [2] (read-out: SNU-16 (IC50 (nM))) is 5.8 nM.
Turning to `CCOCCOc1cc2c(ccn2C(=O)NC)cc1Oc1ccnc(NC(=O)c2ccc(C3CCN(CC)CC3)cc2)c1` [Example 113], the IC50 in test [2] (read-out: SNU-16 (IC50 (nM))) turned out to be 5.7 nM.
As to `CCOCCOc1cc2c(ccn2C(=O)NC)cc1Oc1ccnc(NC(=O)c2ccc(C3CCN(C)CC3)cc2)c1` [Example 114], the IC50 in test [2] (read-out: SNU-16 (IC50 (nM))) came to 4.7 nM.
On to `CNC(=O)n1ccc2cc(Oc3ccnc(NC(=O)c4ccc(CN5CCC[C@@H]5CO)cc4)c3)c(OCCCOC)cc21` [Example 116], for which, in test [1], the IC50 came to 520 nM.
Regarding `CNC(=O)n1ccc2cc(Oc3ccnc(NC(=O)c4ccc(CN5CC[C@H](O)C5)cc4)c3)c(OCCCOC)cc21` [Example 120], the IC50 in test [1] came to 457 nM.
As to `CNC(=O)n1ccc2cc(Oc3ccnc(NC(=O)c4ccc(C5CN(C(C)C)C5)cc4)c3)c(OCCCOC)cc21` [Example 123], the IC50 in test [2] (read-out: SNU-16 (IC50 (nM))) came to 8.5 nM.
Turning to `CCN1CC(c2ccc(C(=O)Nc3cc(Oc4cc5ccn(C(=O)NC)c5cc4OCCCOC)ccn3)cc2)C1` [Example 124], the IC50 in test [2] (read-out: SNU-16 (IC50 (nM))) came to 8.9 nM.
On to `CNC(=O)n1ccc2cc(Oc3ccnc(NC(=O)c4ccc(C5CCN(C(C)C)CC5)cc4)c3)c(OCCCOC)cc21` [Example 127], for which, in test [1], the IC50 was found to be 226 nM.
In the case of `CNC(=O)n1ccc2cc(Oc3ccnc(NC(=O)c4ccc(C5CCN(CCO)CC5)cc4)c3)c(OCCCOC)cc21` [Example 128], the IC50 in test [2] (read-out: SNU-16 (IC50 (nM))) was 6.4 nM.
As for `CCN1CCC(c2ccc(C(=O)Nc3cc(Oc4cc5ccn(C(=O)NC)c5cc4OCCCOC)ccn3)cc2)CC1` [Example 129], the IC50 in test [2] (read-out: SNU-16 (IC50 (nM))) was 7.7 nM.
